Read-outs that look alike come from different tables or passages of the source.
What was measured:
P110 δ/Pi3K δ = P110 δ/Pi3K δ (Homo sapiens, UniProt O00329); assay: Fluorescent (HTRF) determination of PI3K enzyme activity, δ isoform; format: biochemical; parameters: inhibition: dose or concentration left out as unconfirmed
Procedure, shortened: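 HTRF kit detecting PIP3 formed from PIP2 by human PI3Kδ, at room temperature. Reaction started with 400 μM ATP (addition concentration) for 30 min, then stopped, and detection mix incubated 6–18 h in the dark. Percent inhibition taken against blank and enzyme controls, and IC50 fitted.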

P110β = P110β (Homo sapiens, UniProt P42338); assay: Fluorescent (HTRF) determination of PI3K enzyme activity, β isoform; format: biochemical
Text: (§1) Assay 1: Fluorescent determination of PI3Kinase Kinase enzyme activity
(§2) Phosphoinositide 3 kinases (PI3K) belong to a class of lipid kinases that play a critical role in the regulation of several key cellular processes. The PI3K are capable of phosphorylating the 3-hydroxy position of phosphoinositols thereby generating second messengers involved in downstream signalling events. The homogenous time resolved fluorescence (HTRF) assay allows detection of 3,4,5-triphosphate (PIP3) formed as a result of phosphorylation of phosphotidylinositol 4,5-biphosphate (PIP2) by PI3K isoforms such as α, β, γ or δ.
(§3) PI3K isoform activity for α, β, γ or δ was determined using a PI3K human HTRF™ Assay Kit (Millipore, Billerica, Mass.) with modifications. All incubations were carried out at room temperature. Briefly, 0.5 μl of 40× inhibitor (in 100% DMSO) or 100% DMSO were added to each well of a 384-well black plate (Greiner Bio-One, Monroe, N.C.) containing 14.5 μl 1× reaction buffer/PIP2 (10 mM MgCl2, 5 mM DTT, 1.38 μM PIP2) mix with or without enzyme and incubated for 10 min. After the initial incubation, 5 μl/well of 400 μM ATP was added and incubated for an additional 30 minutes. Reaction was terminated by adding 5 μl/well stop solution (Millipore, Billerica, Mass.). Five microliters of detection mix (Millipore, Billerica, Mass.) were then added to each well and was incubated for 6-18 h in the dark. HRTF ratio was measured on a microplate reader (BMG Labtech., Germany) at an excitation wavelength of 337 nm and emission wavelengths of 665 and 620 nm with an integration time of […]. Data were analyzed using Graphpad Prism (Graphpad software; San Diego Calif.) for IC50 determination. Percent inhibition was calculated based on the values for the blank and enzyme controls. The results are provided below in Table 2 & 3.

P110α = P110α (Homo sapiens, UniProt P42336); assay: Fluorescent (HTRF) determination of PI3K enzyme activity, α isoform; format: biochemical
Text: as §1, §2, §3

[1] = read-out: P110 δ/Pi3K δ IC 50 nM
[2] = read-out: P110 δ/ Pi3K δ IC 50 nM

Sequence of P110β (P42338 whole entry, canonical isoform): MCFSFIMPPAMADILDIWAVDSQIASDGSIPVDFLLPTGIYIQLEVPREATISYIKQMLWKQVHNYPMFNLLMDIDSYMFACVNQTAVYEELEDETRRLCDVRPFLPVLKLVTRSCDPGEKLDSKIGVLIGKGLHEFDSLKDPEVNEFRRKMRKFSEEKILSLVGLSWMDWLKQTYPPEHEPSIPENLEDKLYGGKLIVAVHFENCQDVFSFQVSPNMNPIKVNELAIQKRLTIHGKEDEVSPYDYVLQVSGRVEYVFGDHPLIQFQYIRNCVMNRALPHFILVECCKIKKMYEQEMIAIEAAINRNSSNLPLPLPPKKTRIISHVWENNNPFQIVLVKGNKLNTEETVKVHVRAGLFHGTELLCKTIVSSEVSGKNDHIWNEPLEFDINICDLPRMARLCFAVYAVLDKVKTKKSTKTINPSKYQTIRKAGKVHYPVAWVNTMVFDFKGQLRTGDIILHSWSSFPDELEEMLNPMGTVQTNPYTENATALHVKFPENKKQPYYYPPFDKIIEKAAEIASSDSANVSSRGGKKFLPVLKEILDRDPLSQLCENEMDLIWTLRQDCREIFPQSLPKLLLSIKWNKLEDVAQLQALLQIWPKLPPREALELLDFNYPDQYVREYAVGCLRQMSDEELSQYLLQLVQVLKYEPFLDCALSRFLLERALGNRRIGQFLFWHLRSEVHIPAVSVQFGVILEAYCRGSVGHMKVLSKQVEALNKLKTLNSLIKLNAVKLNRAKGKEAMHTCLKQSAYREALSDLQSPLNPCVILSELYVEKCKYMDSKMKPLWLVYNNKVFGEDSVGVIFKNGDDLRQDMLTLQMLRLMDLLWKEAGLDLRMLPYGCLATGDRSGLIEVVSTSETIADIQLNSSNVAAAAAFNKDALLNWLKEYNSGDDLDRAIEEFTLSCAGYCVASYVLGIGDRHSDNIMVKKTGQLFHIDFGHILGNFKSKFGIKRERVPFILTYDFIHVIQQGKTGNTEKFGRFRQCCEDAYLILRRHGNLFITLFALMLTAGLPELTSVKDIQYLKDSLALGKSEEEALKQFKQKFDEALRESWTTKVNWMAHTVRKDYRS
Sequence of P110β (P27986 whole entry partner, canonical isoform): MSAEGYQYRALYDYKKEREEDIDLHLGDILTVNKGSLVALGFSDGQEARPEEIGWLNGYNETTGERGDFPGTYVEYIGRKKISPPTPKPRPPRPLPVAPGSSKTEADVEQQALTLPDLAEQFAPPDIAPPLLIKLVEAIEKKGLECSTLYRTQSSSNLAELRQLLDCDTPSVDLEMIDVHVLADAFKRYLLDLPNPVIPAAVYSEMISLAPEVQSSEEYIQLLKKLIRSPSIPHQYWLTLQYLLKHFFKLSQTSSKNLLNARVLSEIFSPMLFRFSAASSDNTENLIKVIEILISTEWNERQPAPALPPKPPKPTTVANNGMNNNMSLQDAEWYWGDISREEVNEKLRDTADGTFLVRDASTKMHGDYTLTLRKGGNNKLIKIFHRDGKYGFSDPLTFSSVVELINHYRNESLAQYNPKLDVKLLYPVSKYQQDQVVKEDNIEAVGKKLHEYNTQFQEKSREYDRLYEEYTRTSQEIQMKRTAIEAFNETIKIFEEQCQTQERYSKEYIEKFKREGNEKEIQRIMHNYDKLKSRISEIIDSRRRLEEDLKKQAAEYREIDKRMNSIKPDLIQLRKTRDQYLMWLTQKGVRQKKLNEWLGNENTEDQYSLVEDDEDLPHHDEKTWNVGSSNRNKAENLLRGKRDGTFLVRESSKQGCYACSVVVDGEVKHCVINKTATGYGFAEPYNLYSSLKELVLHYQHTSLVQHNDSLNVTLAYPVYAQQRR
Sequence of P110 δ/Pi3K δ (O00329 whole entry, canonical isoform): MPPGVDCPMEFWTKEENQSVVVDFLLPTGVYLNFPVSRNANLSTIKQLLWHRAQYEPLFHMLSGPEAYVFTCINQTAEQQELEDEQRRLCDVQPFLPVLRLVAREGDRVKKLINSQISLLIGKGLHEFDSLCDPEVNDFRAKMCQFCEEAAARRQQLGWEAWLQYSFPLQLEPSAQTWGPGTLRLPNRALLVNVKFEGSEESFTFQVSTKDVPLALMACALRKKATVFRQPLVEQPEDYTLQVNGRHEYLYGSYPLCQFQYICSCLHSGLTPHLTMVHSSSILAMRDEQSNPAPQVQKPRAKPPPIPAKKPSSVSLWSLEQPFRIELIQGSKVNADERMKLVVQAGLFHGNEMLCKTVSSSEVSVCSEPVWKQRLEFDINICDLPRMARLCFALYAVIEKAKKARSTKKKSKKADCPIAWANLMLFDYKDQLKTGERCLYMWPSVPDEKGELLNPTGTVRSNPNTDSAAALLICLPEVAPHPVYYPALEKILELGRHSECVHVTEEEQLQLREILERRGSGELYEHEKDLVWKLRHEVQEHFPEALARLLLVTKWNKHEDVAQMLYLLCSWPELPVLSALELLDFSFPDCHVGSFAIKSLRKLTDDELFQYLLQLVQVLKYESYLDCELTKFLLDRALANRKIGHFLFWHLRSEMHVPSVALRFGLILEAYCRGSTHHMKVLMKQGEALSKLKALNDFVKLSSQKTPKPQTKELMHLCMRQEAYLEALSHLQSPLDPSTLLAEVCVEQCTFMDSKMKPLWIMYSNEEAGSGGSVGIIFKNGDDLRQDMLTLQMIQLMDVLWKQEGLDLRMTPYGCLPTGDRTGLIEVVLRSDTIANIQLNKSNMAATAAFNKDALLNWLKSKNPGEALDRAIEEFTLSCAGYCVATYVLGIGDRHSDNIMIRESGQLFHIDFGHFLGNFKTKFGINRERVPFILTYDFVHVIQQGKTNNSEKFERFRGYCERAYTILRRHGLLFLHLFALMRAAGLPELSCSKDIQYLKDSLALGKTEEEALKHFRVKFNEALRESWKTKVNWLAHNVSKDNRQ
Sequence of P110 δ/Pi3K δ (P27986 whole entry partner, canonical isoform): as the sequence (P27986 whole entry partner, canonical isoform) above
Sequence of P110α (P42336 whole entry, canonical isoform): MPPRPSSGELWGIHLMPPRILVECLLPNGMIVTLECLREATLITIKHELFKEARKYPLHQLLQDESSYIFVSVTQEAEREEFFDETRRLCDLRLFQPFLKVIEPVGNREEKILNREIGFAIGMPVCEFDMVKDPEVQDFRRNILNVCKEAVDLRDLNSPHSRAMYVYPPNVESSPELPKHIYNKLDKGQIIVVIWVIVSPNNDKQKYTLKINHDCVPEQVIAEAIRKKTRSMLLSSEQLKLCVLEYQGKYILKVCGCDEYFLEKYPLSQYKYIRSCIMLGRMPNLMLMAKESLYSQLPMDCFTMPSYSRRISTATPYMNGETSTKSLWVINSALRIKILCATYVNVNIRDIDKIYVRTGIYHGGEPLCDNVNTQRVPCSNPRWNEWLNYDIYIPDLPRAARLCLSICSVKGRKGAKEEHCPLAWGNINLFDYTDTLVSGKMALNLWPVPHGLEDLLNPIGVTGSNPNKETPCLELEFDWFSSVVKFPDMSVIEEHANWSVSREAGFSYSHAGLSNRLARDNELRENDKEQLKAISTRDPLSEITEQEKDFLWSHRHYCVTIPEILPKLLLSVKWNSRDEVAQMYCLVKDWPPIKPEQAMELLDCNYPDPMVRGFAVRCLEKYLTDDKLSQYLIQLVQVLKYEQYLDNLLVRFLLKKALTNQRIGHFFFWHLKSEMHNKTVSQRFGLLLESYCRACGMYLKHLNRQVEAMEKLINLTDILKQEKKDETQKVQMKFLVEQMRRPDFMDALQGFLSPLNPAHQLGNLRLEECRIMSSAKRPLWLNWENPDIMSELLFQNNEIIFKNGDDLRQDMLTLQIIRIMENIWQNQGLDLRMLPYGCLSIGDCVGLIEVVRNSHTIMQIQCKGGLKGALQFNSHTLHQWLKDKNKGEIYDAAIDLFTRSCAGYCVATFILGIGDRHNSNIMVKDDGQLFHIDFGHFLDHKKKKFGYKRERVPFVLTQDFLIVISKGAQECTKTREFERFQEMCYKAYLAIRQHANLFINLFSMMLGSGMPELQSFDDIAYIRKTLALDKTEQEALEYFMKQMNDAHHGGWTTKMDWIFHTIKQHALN
Sequence of P110α (P27986 whole entry partner, canonical isoform): as the sequence (P27986 whole entry partner, canonical isoform) above

| SMILES | inhibition at 1 µM (P110 δ/Pi3K δ) [%] | IC50 (P110 δ/Pi3K δ; [1]) [nM] | melting point [°C] | inhibition at 1 µM (P110β) [%] | inhibition at 1 µM (P110α) [%] | inhibition (P110 δ/Pi3K δ) [%] | IC50 (P110 δ/Pi3K δ; [2]) [nM] |
| --- | --- | --- | --- | --- | --- | --- | --- |
| Nc1ncnc2c1ncn2Cc1oc2ccc(Br)cc2c(=O)c1-c1ccccc1 [Example 1, 2-[(6-Amino-9H-purin-9-yl)methyl]-6-bromo-3-phenyl-4H-chromen-4-one] | < 50 | < 250 | 207 to 209 | < 25 | < 25 | – | – |
| O=c1c(-c2ccccc2)c(Cn2cnc3c(Cl)ncnc32)oc2ccc(Br)cc12 [Example 10, 6-Bromo-2-[(6-chloro-9H-purin-9-yl)methyl]-3-phenyl-4H-chromen-4-one] | – | – | 234 to 236 | < 25 | < 25 | – | – |
| CC(c1oc2ccccc2c(=O)c1-c1ccccc1)n1cnc2c(N)ncnc21 (centres unmarked) [Example 23, 2-(1-(6-Amino-9H-purin-9-yl)ethyl)-3-phenyl-4H-chromen-4-one] | 50 to 100 | < 250 | 254 to 257 | < 25 | < 25 | – | – |
| COc1cc(F)cc(-c2nn(Cc3oc4ccc(F)cc4c(=O)c3-c3cccc(F)c3)c3ncnc(N)c23)c1 [Example 120, 2-((4-amino-3-(3-fluoro-5-methoxyphenyl)-1H-pyrazolo[3,4-d]pyrimidin-1-yl)methyl)-6-fluoro-3-(3-fluorophenyl)-4H-chromen-4-one] | – | – | – | < 25 | < 25 | – | – |
| CC(c1oc2ccccc2c(=O)c1-c1cccc(F)c1)n1nc(-c2ccc3c(c2)OCCCO3)c2c(N)ncnc21 (centres unmarked) [Example 136, 2-(1-(4-amino-3-(3,4-dihydro-2H-benzo[b][1,4]dioxepin-7-yl)-1H-pyrazolo[3,4-d]pyrimidin-1-yl)ethyl)-3-(3-fluorophenyl)-4H-chromen-4-one] | – | – | 234 to 237 | 25 to 50 | – | < 50 | – |
| CC(c1oc2ccccc2c(=O)c1-c1cccc(F)c1)n1nc(-c2ccc(N3CCOCC3)nc2)c2c(N)ncnc21 (centres unmarked) [Example 137, 2-(1-(4-amino-3-(6-morpholinopyridin-3-yl)-1H-pyrazolo[3,4-d]pyrimidin-1-yl)ethyl)-3-(3-fluorophenyl)-4H-chromen-4-one] | – | – | 269 to 271 | 25 to 50 | – | < 50 | – |
| CC(C)Oc1ccc(-c2nn(C(C)c3oc4ccccc4c(=O)c3-c3cccc(F)c3)c3ncnc(N)c23)cc1 (centres unmarked) [Example 144, 2-(1-(4-amino-3-(4-isopropoxyphenyl)-1H-pyrazolo[3,4-d]pyrimidin-1-yl)ethyl)-3-(3-fluorophenyl)-4H-chromen-4-one] | – | – | 224 to 226 | 50 to 100 | – | 50 to 100 | < 250 |
| CC(c1oc2ccccc2c(=O)c1-c1cccc(F)c1)n1nc(-c2ccc(OC(F)(F)F)cc2)c2c(N)ncnc21 (centres unmarked) [Example 145, 2-(1-(4-amino-3-(4-(trifluoromethoxy)phenyl)-1H-pyrazolo[3,4-d]pyrimidin-1-yl)ethyl)-3-(3-fluorophenyl)-4H-chromen-4-one] | – | – | 224 to 226 | 25 to 50 | – | < 50 | – |
| CC(=O)c1ccc(-c2nn(C(C)c3oc4ccccc4c(=O)c3-c3cccc(F)c3)c3ncnc(N)c23)cc1 (centres unmarked) [Example 146, 2-(1-(3-(4-acetylphenyl)-4-amino-1H-pyrazolo[3,4-d]pyrimidin-1-yl)ethyl)-3-(3-fluorophenyl)-4H-chromen-4-one] | – | – | 218 to 221 | < 25 | – | 50 to 100 | – |
| CC(c1oc2ccccc2c(=O)c1-c1cccc(F)c1)n1nc(-c2ccc(OCc3ccccc3)cc2)c2c(N)ncnc21 (centres unmarked) [Example 147, 2-(1-(4-amino-3-(4-(benzyloxy)phenyl)-1H-pyrazolo[3,4-d]pyrimidin-1-yl)ethyl)-3-(3-fluorophenyl)-4H-chromen-4-one] | – | – | 176 to 178 | 25 to 50 | – | < 50 | – |
| CC(c1oc2ccccc2c(=O)c1-c1cccc(F)c1)n1nc(-c2ccc(N(C)C)cc2)c2c(N)ncnc21 (centres unmarked) [Example 148, 2-(1-(4-amino-3-(4-(dimethylamino)phenyl)-1H-pyrazolo[3,4-d]pyrimidin-1-yl)ethyl)-3-(3-fluorophenyl)-4H-chromen-4-one] | – | – | 214 to 217 | 50 to 100 | – | 50 to 100 | – |
| CC(c1oc2ccccc2c(=O)c1-c1cccc(F)c1)n1nc(-c2ccc(S(C)(=O)=O)cc2)c2c(N)ncnc21 (centres unmarked) [Example 149, 2-(1-(4-amino-3-(4-(methylsulfonyl)phenyl)-1H-pyrazolo[3,4-d]pyrimidin-1-yl)ethyl)-3-(3-fluorophenyl)-4H-chromen-4-one] | – | – | 259 to 262 | 25 to 50 | – | < 50 | – |
| CCOc1cccc(-c2nn(C(C)c3oc4ccccc4c(=O)c3-c3cccc(F)c3)c3ncnc(N)c23)c1 (centres unmarked) [Example 150, 2-(1-(4-amino-3-(3-ethoxyphenyl)-1H-pyrazolo[3,4-d]pyrimidin-1-yl)ethyl)-3-(3-fluorophenyl)-4H-chromen-4-one] | – | – | 162 to 165 | 25 to 50 | – | < 50 | – |
| CC(c1oc2ccccc2c(=O)c1-c1cccc(F)c1)n1nc(-c2cc3ccccc3s2)c2c(N)ncnc21 (centres unmarked) [Example 151, 2-(1-(4-amino-3-(benzo[b]thiophen-2-yl)-1H-pyrazolo[3,4-d]pyrimidin-1-yl)ethyl)-3-(3-fluorophenyl)-4H-chromen-4-one] | – | – | 242 to 245 | 25 to 50 | – | 50 to 100 | < 250 |
| CC(c1oc2ccccc2c(=O)c1-c1cccc(F)c1)n1nc(-c2ccc(Cl)s2)c2c(N)ncnc21 (centres unmarked) [Example 152, 2-(1-(4-amino-3-(5-chlorothiophen-2-yl)-1H-pyrazolo[3,4-d]pyrimidin-1-yl)ethyl)-3-(3-fluorophenyl)-4H-chromen-4-one] | – | – | 226 to 229 | < 25 | – | < 50 | – |
| Cc1noc(C)c1-c1nn(C(C)c2oc3ccccc3c(=O)c2-c2cccc(F)c2)c2ncnc(N)c12 (centres unmarked) [Example 153, 2-(1-(4-amino-3-(3,5-dimethylisoxazol-4-yl)-1H-pyrazolo[3,4-d]pyrimidin-1-yl)ethyl)-3-(3-fluorophenyl)-4H-chromen-4-one] | – | – | 218 to 222 | < 25 | – | < 50 | – |
| CCCOc1cccc(-c2nn(C(C)c3oc4ccccc4c(=O)c3-c3cccc(F)c3)c3ncnc(N)c23)c1 (centres unmarked) [Example 154, 2-(1-(4-amino-3-(3-propoxyphenyl)-1H-pyrazolo[3,4-d]pyrimidin-1-yl)ethyl)-3-(3-fluorophenyl)-4H-chromen-4-one] | – | – | 178 to 182 | < 25 | – | < 50 | – |
| CC(c1oc2ccccc2c(=O)c1-c1cccc(F)c1)n1nc(-c2ccco2)c2c(N)ncnc21 (centres unmarked) [Example 155, 2-(1-(4-amino-3-(furan-2-yl)-1H-pyrazolo[3,4-d]pyrimidin-1-yl)ethyl)-3-(3-fluorophenyl)-4H-chromen-4-one] | – | – | 234 to 236 | < 25 | – | 50 to 100 | – |
| CCOc1ccc(-c2nn(C(C)c3oc4ccccc4c(=O)c3-c3cccc(F)c3)c3ncnc(N)c23)cc1 (centres unmarked) [Example 156, 2-(1-(4-amino-3-(4-ethoxyphenyl)-1H-pyrazolo[3,4-d]pyrimidin-1-yl)ethyl)-3-(3-fluorophenyl)-4H-chromen-4-one] | – | – | 229 to 232 | 25 to 50 | – | < 50 | – |

From patent publication US9421209B2, “Kinase modulators” (Rhizen Pharmaceuticals SA, priority 2009, dated 2016)
